Values quoted from earlier work as cited in patent US7638270B2, “Nucleic acids and corresponding proteins entitled 254P1D6B useful in treatment and detection of cancer” (Agensys, Inc., priority 2003, dated 2009).

Tested on: HLA-DR alleles

binding to HLA-DR alleles: bind to most HLA-DR alleles
Substance: xKXVAAWTLKAAx: pan-DR-binding epitope peptide (SEQ ID NO: 16); X is cyclohexylalanine, phenylalanine or tyrosine
stimulation of the response of T helper lymphocytes (regardless of HLA type): stimulate the response of T helper lymphocytes from most individuals
